Key:
[1] = tested on: Puccinia recondita f. Sp. tritici; test: Puccinia recondita f. sp. tritici / wheat / leaf disc curative (brown rust); type: in vivo; conditions: foliar, 200 ppm in the applied formulation, wheat leaf segments cv. Kanzler, applied 1 day after inoculation, assessed 6 to 8 days after application, compared to untreated, read-out: disease control
Protocol: Leaf disks or leaf segments of various plant species are cut from plants grown in a greenhouse. The cut leaf disks or segments are placed in multiwell plates (24-well format) onto water agar. The leaf disks are sprayed with a test solution before (preventative) or after (curative) inoculation. Compounds to be tested are prepared as DMSO solutions (max. 10 mg/mL) which are diluted to the appropriate concentration with 0.025% Tween20 just before spraying. The inoculated leaf disks or segments are incubated under defined conditions (temperature, relative humidity, light, etc.) according to the respective test system. A single evaluation of disease level is carried out 3 to 14 days after inoculation, depending on the pathosystem. Percent disease control relative to the untreated check leaf disks or segments is then calculated. Example 2: Fungicidal Activity Against Puccinia recondita f. sp. tritici/Wheat/Leaf Disc Curative (Brown Rust) Wheat leaf segments cv. Kanzler are placed on agar in multiwell plates (24-well format). The leaf segments are then inoculated with a spore suspension of the fungus. Plates were stored in darkness at 19° C. and 75% relative humidity. The formulated test compound diluted in water was applied 1 day after inoculation. The leaf segments were incubated at 19° C. and 75% relative humidity under a light regime of 12 hours light/12 hours darkness in a climate cabinet and the activity of a compound was assessed as percent disease control compared to untreated when an appropriate level of disease damage appears in untreated check leaf segments (6 to 8 days after application). The following compounds at 200 ppm in the applied formulation give at least 80% disease control in this test when compared to untreated control leaf disks under the same conditions, which show extensive disease development.

Phakopsora pachurhizi = Phakopsora pachurhizi / soybean / leaf disc preventative (Asian soybean rust); type: in vivo; conditions: Glycine max, foliar, 200 ppm in the applied formulation, soybean leaf disks, inoculated one day after application, assessed 12 to 14 days after application, compared to untreated, read-out: disease control
Protocol: Leaf disks or leaf segments of various plant species are cut from plants grown in a greenhouse. The cut leaf disks or segments are placed in multiwell plates (24-well format) onto water agar. The leaf disks are sprayed with a test solution before (preventative) or after (curative) inoculation. Compounds to be tested are prepared as DMSO solutions (max. 10 mg/mL) which are diluted to the appropriate concentration with 0.025% Tween20 just before spraying. The inoculated leaf disks or segments are incubated under defined conditions (temperature, relative humidity, light, etc.) according to the respective test system. A single evaluation of disease level is carried out 3 to 14 days after inoculation, depending on the pathosystem. Percent disease control relative to the untreated check leaf disks or segments is then calculated.
Example 3: Fungicidal Activity Against Phakopsora pachurhizi/Soybean/Leaf Disc Preventative (Asian Soybean Rust)
Soybean leaf disks are placed on water agar in multiwell plates (24-well format) and sprayed with the formulated test compound diluted in water. One day after application leaf discs are inoculated by spraying a spore suspension on the lower leaf surface. After an incubation period in a climate cabinet of 24-36 hours in darkness at 20° C. and 75% rh leaf disc are kept at 20° C. with 12 hours light/day and 75% rh. The activity of a compound is assessed as percent disease control compared to untreated when an appropriate level of disease damage appears in untreated check leaf disks (12 to 14 days after application).
The following compounds at 200 ppm in the applied formulation give at least 80% disease control in this test when compared to untreated control leaf disks under the same conditions, which show extensive disease development.

[2] = tested on: Puccinia recondita f. Sp. tritici; test: Puccinia recondita f. sp. tritici / wheat / leaf disc preventative (brown rust); type: in vivo; conditions: foliar, 200 ppm in the applied formulation, wheat leaf segments cv. Kanzler, inoculated 1 day after application, assessed 7 to 9 days after application, compared to untreated, read-out: disease control
Protocol: Leaf disks or leaf segments of various plant species are cut from plants grown in a greenhouse. The cut leaf disks or segments are placed in multiwell plates (24-well format) onto water agar. The leaf disks are sprayed with a test solution before (preventative) or after (curative) inoculation. Compounds to be tested are prepared as DMSO solutions (max. 10 mg/mL) which are diluted to the appropriate concentration with 0.025% Tween20 just before spraying. The inoculated leaf disks or segments are incubated under defined conditions (temperature, relative humidity, light, etc.) according to the respective test system. A single evaluation of disease level is carried out 3 to 14 days after inoculation, depending on the pathosystem. Percent disease control relative to the untreated check leaf disks or segments is then calculated. Example 1: Fungicidal Activity Against Puccinia recondita f. Sp. tritici/Wheat/Leaf Disc Preventative (Brown Rust) Wheat leaf segments cv. Kanzler were placed on agar in multiwell plates (24-well format) and sprayed with the formulated test compound diluted in water. The leaf disks were inoculated with a spore suspension of the fungus 1 day after application. The inoculated leaf segments were incubated at 19° C. and 75% relative humidity (rh) under a light regime of 12 hours light/12 hours darkness in a climate cabinet and the activity of a compound was assessed as percent disease control compared to untreated when an appropriate level of disease damage appears in untreated check leaf segments (7 to 9 days after application). The following compounds at 200 ppm in the applied formulation give at least 80% disease control in this test when compared to untreated control leaf disks under the same conditions, which show extensive disease development.

Glomerella lagenarium = Glomerella lagenarium liquid culture / cucumber / preventative (anthracnose); type: cell-based; conditions: Colletotrichum orbiculare; 20 ppm in the applied formulation; liquid culture in PDB, 24° C.; measured 3 to 4 days after application; compared to untreated; read-out: disease control (inhibition of growth, photometric)
Protocol: Mycelia fragments or conidia suspensions of a fungus prepared either freshly from liquid cultures of the fungus or from cryogenic storage, are directly mixed into nutrient broth. DMSO solutions of the test compound (max. 10 mg/mL) are diluted with 0.025% Tween20 by a factor of 50 and 10 μL of this solution is pipetted into a microtiter plate (96-well format). The nutrient broth containing the fungal spores/mycelia fragments is then added to give an end concentration of the tested compound. The test plates are incubated in the dark at 24° C. and 96% relative humidity. The inhibition of fungal growth is determined photometrically after 2 to 7 days, depending on the pathosystem, and percent antifungal activity relative to the untreated check is calculated. Example 4: Fungicidal activity against Glomerella lagenarium liquid culture/cucumber/Preventative (Anthracnose) Conidia of the fungus from cryogenic storage are directly mixed into nutrient broth (PDB—potato dextrose broth). After placing a (DMSO) solution of test compound into a microtiter plate (96-well format), the nutrient broth containing the fungal spores is added. The test plates are incubated at 24° C. and the inhibition of growth is measured photometrically 3 to 4 days after application. The following compounds at 20 ppm in the applied formulation give at least 80% disease control in this test when compared to untreated control under the same conditions, which show extensive disease development.

Row | Structure (SMILES) | pest or weed control at 200 ppm [1] [%] | pest or weed control at 200 ppm (Phakopsora pachurhizi) [%] | pest or weed control at 200 ppm [2] [%] | inhibition at 20 ppm (Glomerella lagenarium) [%] | melting point [°C]
1 | Cc1cnc(Cc2ccc(-c3noc(C(F)(F)F)n3)s2)cn1 [Compound 1.1, 3-[5-[(5-methylpyrazin-2-yl)methyl]-2-thienyl]-5-(trifluoromethyl)-1,2,4-oxadiazole] | ≥ 80 | ≥ 80 | ≥ 80 | ≥ 80 | 
2 | Cc1cnc(C(=O)c2ccc(-c3noc(C(F)(F)F)n3)s2)cn1 [Compound 1.2, (5-methylpyrazin-2-yl)-[5-[5-(trifluoromethyl)-1,2,4-oxadiazol-3-yl]-2-thienyl]methanone] | ≥ 80 | ≥ 80 | ≥ 80 | ≥ 80 | 105 to 110
3 | Cc1cnc(C(O)c2ccc(-c3noc(C(F)(F)F)n3)s2)cn1 (stereo not drawn) [Compound 1.3, (5-methylpyrazin-2-yl)-[5-[5-(trifluoromethyl)-1,2,4-oxadiazol-3-yl]-2-thienyl]methanol] | ≥ 80 | ≥ 80 | ≥ 80 | ≥ 80 | 95 to 100
4 | FC(F)(F)c1nc(-c2ccc(Cc3cnccn3)s2)no1 [Compound 1.4, 3-[5-(pyrazin-2-ylmethyl)-2-thienyl]-5-(trifluoromethyl)-1,2,4-oxadiazole] | ≥ 80 | ≥ 80 | ≥ 80 | ≥ 80 | 
5 | O=C(c1cnccn1)c1ccc(-c2noc(C(F)(F)F)n2)s1 [Compound 1.5, pyrazin-2-yl-[5-[5-(trifluoromethyl)-1,2,4-oxadiazol-3-yl]-2-thienyl]methanone] | ≥ 80 | ≥ 80 | ≥ 80 | ≥ 80 | 95 to 105
6 | OC(c1cnccn1)c1ccc(-c2noc(C(F)(F)F)n2)s1 (stereo not drawn) [Compound 1.6, pyrazin-2-yl-[5-[5-(trifluoromethyl)-1,2,4-oxadiazol-3-yl]-2-thienyl]methanol] | ≥ 80 |  | ≥ 80 | ≥ 80 | 
7 | O=C(c1ncccn1)c1ccc(-c2noc(C(F)(F)F)n2)s1 [Compound 1.7, pyrimidin-2-yl-[5-[5-(trifluoromethyl)-1,2,4-oxadiazol-3-yl]-2-thienyl]methanone] | ≥ 80 | ≥ 80 | ≥ 80 | ≥ 80 | 110 to 116
8 | Cc1ccc(C(=O)c2ccc(-c3noc(C(F)(F)F)n3)s2)nc1C [Compound 1.8, (5,6-dimethyl-2-pyridyl)-[5-[5-(trifluoromethyl)-1,2,4-oxadiazol-3-yl]-2-thienyl]methanone] | ≥ 80 | ≥ 80 | ≥ 80 |  | 98 to 112
9 | O=C(c1cnc(Cl)cn1)c1ccc(-c2noc(C(F)(F)F)n2)s1 [Compound 1.9, (5-chloropyrazin-2-yl)-[5-[5-(trifluoromethyl)-1,2,4-oxadiazol-3-yl]-2-thienyl]methanone] | ≥ 80 |  | ≥ 80 | ≥ 80 | 80 to 85
10 | CCC(O)(c1ccc(C)cn1)c1ccc(-c2noc(C(F)(F)F)n2)s1 (stereo not drawn) [Compound 1.10, 1-(5-methyl-2-pyridyl)-1-[5-[5-(trifluoromethyl)-1,2,4-oxadiazol-3-yl]-2-thienyl]propan-1-ol] | ≥ 80 | ≥ 80 | ≥ 80 | ≥ 80 | 
11 | Cc1ccc(Cc2ccc(-c3noc(C(F)(F)F)n3)s2)nc1 [Compound 1.11, 3-[5-[(5-methyl-2-pyridyl)methyl]-2-thienyl]-5-(trifluoromethyl)-1,2,4-oxadiazole] | ≥ 80 | ≥ 80 | ≥ 80 | ≥ 80 | 40 to 45
12 | Cc1ccc(C(=O)c2ccc(-c3noc(C(F)(F)F)n3)s2)nc1 [Compound 1.12, (5-methyl-2-pyridyl)-[5-[5-(trifluoromethyl)-1,2,4-oxadiazol-3-yl]-2-thienyl]methanone] | ≥ 80 | ≥ 80 | ≥ 80 | ≥ 80 | 111 to 114
13 | Cc1ccc(C(O)c2ccc(-c3noc(C(F)(F)F)n3)s2)nc1 (stereo not drawn) [Compound 1.13, (5-methyl-2-pyridyl)-[5-[5-(trifluoromethyl)-1,2,4-oxadiazol-3-yl]-2-thienyl]methanol] | ≥ 80 | ≥ 80 | ≥ 80 | ≥ 80 | 

— US20210284633A1, “3-(2-THIENYL)-5-(TRIFLUOROMETHYL)-1,2,4-OXADIAZOLE DERIVATIVES AS AGROCHEMICAL FUNGICIDES” (SYNGENTA CROP PROTECTION AG, priority 2018, published 2021)
